Drawing on PMC11342626, “Inhibition of IRP2-dependent reprogramming of iron metabolism suppresses tumor growth in colorectal cancer” (Cell Communication and Signaling : CCS, 2024), this text covers Kd for two compounds.

The target in the assay is T1, IRP2 (Homo sapiens, UniProt P48200).
T1 construct: gene IREB2; isolated IRP2 immobilised on CM5 chip
T1 sequence (P48200 1-963): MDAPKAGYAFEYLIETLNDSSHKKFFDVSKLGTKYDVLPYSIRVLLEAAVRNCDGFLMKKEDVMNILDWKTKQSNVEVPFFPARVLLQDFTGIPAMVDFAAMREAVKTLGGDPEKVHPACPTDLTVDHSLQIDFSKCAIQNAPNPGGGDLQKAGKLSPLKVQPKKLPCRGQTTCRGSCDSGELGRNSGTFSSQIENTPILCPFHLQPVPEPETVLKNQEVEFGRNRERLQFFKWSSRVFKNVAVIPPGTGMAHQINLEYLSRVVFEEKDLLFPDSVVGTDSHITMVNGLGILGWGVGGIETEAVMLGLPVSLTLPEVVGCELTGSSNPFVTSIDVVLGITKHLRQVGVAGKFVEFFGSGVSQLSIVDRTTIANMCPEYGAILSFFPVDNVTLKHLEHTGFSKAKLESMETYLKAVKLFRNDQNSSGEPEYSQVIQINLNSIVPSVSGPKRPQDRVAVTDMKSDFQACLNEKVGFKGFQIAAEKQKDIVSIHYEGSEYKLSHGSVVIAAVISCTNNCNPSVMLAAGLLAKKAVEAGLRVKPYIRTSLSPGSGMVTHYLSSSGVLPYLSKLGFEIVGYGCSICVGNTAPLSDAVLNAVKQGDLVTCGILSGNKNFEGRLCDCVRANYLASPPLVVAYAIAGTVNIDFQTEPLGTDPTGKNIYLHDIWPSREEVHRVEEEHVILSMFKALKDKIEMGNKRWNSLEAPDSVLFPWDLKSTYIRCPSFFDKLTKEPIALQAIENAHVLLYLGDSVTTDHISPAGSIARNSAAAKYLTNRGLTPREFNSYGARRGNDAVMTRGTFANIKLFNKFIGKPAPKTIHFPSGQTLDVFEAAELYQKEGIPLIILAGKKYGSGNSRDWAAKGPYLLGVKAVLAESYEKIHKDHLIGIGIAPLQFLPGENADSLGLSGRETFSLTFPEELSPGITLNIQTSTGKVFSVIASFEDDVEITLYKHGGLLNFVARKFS
The assay is described as follows: SPR (Biacore T200, CM5 chip, multi-cycle kinetics, […] fit). It is filed as binding. In general terms: In SPR one partner is held on a chip, and binding of the other changes the refractive index at the surface.

As usually defined, the Kd is the constant that tells how readily two partners part at equilibrium.

Molecules are shown by their SMILES.

As to `COc1ccc(S(=O)(=O)Nc2cccc(C)c2)cc1-c1cnc2[nH]ncc2c1` [KS-20073], binding was put at a Kd of 45.9 µM.

Take `COc1ccc(S(=O)(=O)Nc2cccc(F)c2)cc1-c1cnc2[nH]nc(NC(C)=O)c2c1` [KS-20226]: binding was put at a Kd of 4.1 µM.
